The text below walks through data of ChEMBL document CHEMBL1201862, “PubChem BioAssay data set” (2004).

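48-hour exposure; five concentrations; linearly interpolated endpoints. GI50 is the concentration that inhibits growth by half.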 Calls of active or inactive are those of the source. No stated cut-off is given here; in the data, active = GI50 up to about 1.1 µM and inactive = higher.

Test in all cases: DTP human tumour cell line panel, 48 h
The subject of experiment [1] is 786-0.
Experiment [2] deals with BT-549.
Experiment [3] relates to HCC 2998.
Experiment [4] deals with HOP-62.
Experiment [5] relates to HT-29.
Experiment [6] relates to Hs-578T.
The subject of experiment [7] is MOLT-4.
The test system of experiment [8] is NCI-H226.
Experiment [9] has as its system NCI-H23.
In experiment [10] the test system is PC-3.
Experiment [11] concerns SNB-75.
The test system of experiment [12] is T47D.
Experiment [13] concerns UACC-257.
The subject of experiment [14] is UO-31.
The subject of experiment [15] is UACC-62.

Turning to `Cc1ccc(/C=C/C(=O)c2cc(CN(C)C)c(O)c(CN(C)C)c2)cc1`, the GI50 in [1] is 27.2 µM (inactive); in experiment [2], 18.3 µM (inactive); in experiment [3] it was 18.5 µM (inactive); in experiment [4] it was 16.5 µM (inactive); in experiment [5], 13.7 µM (inactive); in experiment [6] it was 29.8 µM (inactive). Moreover, the GI50 in [7] was 16 µM (inactive); in experiment [8], 22.5 µM (inactive); in [9], 29 µM (inactive); in [10] it was 13.5 µM (inactive); in experiment [11], 24.4 µM (inactive); in experiment [12] it was 18 µM (inactive). Also, the GI50 in [13] is 13.8 µM (inactive); in experiment [14], 15.7 µM (inactive).
`COc1ccc2nc3cc([N+](=O)[O-])ccc3c(Nc3ccc(S(=O)(=O)Nc4ncccn4)cc3)c2c1`: the GI50 was 67 µM (inactive) in [1]; > 44.4 µM (inactive) in experiment [2]; > 59 µM (inactive) in experiment [3]; > 64.9 µM (inactive) in experiment [4]; 26.5 µM (inactive) in experiment [5]; 12.4 µM (inactive) in experiment [6]. Besides, the GI50 in [7] is > 20.2 µM (inactive); in [8], 69.3 µM (inactive); in experiment [10] it was 30.6 µM (inactive); in experiment [11], 62.2 µM (inactive); in [12], > 100 µM (inactive); in experiment [13], > 71.1 µM (inactive). The GI50 was > 65.9 µM (inactive) in experiment [15] and 19.4 µM (inactive) in [14].
With `Clc1ccc(Cc2nc3cc(Cl)c(Cl)cc3n2CC2CCCN3CCCCC23)cc1Cl` (configuration not stated), the GI50 in experiment [1] was 2.99 µM (inactive); in experiment [2], 8.43 µM (inactive); in experiment [3], 1.65 µM (inactive); in experiment [4], 9.14 µM (inactive); in experiment [5], 2.43 µM (inactive); in [6], 3.4 µM (inactive). The GI50 was 4.34 µM (inactive) in experiment [7]; 7.16 µM (inactive) in experiment [8]; 4.12 µM (inactive) in [10]; 4.53 µM (inactive) in experiment [11]; 7.29 µM (inactive) in experiment [12]; 2.88 µM (inactive) in experiment [13]. Further, the values for the GI50 in experiment [15] and in [14] were 2.28 µM (inactive) and 0.335 µM (active), respectively.
For `N#Cc1c2c(c(Nc3ccc(F)cc3)n3c1nc1ccccc13)CCCC2`, the GI50 in experiment [1] was 56.2 µM (inactive); in [2], > 91.6 µM (inactive); in [3] it was > 100 µM (inactive); in experiment [4], 29.1 µM (inactive); in experiment [5], > 100 µM (inactive); in experiment [6], 36.9 µM (inactive). Besides, the GI50 in experiment [7] is 6.32 µM (inactive); in experiment [8], > 80 µM (inactive); in experiment [9], > 100 µM (inactive); in [10] it was 5.36 µM (inactive); in experiment [11] it was 45.7 µM (inactive); in experiment [12], 6.64 µM (inactive). Moreover, the GI50 in experiment [13] was 27.2 µM (inactive); in experiment [15] it was > 100 µM (inactive); in experiment [14], > 38.9 µM (inactive).
With `C=C1C[C@@H]2CC[C@@]34CC5O[C@H]6C(O[C@H]7CC[C@H](CC(=O)O[C@@H]8[C@@H](C)[C@@H]9O[C@@H]%10C[C@]%11(C[C@@H]%12O[C@]%13(C[C@H](C)[C@@H]%14O[C@@H]%15CC(C(COC(C)=O)OC(C)=O)O[C@@H]%15C[C@@H]%14O%13)C[C@H](C)[C@@H]%12O%11)O[C@@H]%10C[C@@H]9O[C@H]8CC8O[C@@H](CC[C@@H]1O2)C[C@@H](C)C8(O)CO)O[C@@H]7[C@@H]6O3)[C@H]5O4` (some centres not stated), the GI50 in [1] was 0.392 µM (active); in experiment [2] it was 0.0908 µM (active); in experiment [3], 0.00489 µM (active); in [4] it was > 1 µM (active); in experiment [6] it was 0.272 µM (active); in experiment [7] it was > 0.548 µM (active). Besides, the GI50 was 0.45 µM (active) in experiment [8]; 0.264 µM (active) in [9]; 0.399 µM (active) in [10]; 0.336 µM (active) in [11]; > 0.451 µM (active) in experiment [12]; 0.0716 µM (active) in experiment [13]. For the same molecule, the GI50 in [15] is 0.242 µM (active); in experiment [14], > 0.805 µM (active).
`O=C1/C(=C/c2ccc(Cl)cc2)Sc2scc(-c3cccc([N+](=O)[O-])c3)[n+]21`: the GI50 was 2.16 µM (inactive) in experiment [1]; 2.2 µM (inactive) in [2]; 2.8 µM (inactive) in [3]; 19.5 µM (inactive) in experiment [4]; 5.65 µM (inactive) in [5]; 5.48 µM (inactive) in experiment [6]. Besides, the GI50 in [7] is 2.04 µM (inactive); in experiment [8], 29.8 µM (inactive); in experiment [9], 4.95 µM (inactive); in [10] it was 7.5 µM (inactive); in experiment [11], 0.971 µM (active); in [12], 3.5 µM (inactive). The GI50 in experiment [13] was 4.61 µM (inactive); in experiment [15], 3.16 µM (inactive); in experiment [14] it was 4.43 µM (inactive).
Turning to `CCOC(=O)c1cc(-c2ccc(OC)c(OC)c2)cn1C`, the GI50 was > 10 µM (inactive) in experiment [1]; > 10 µM (inactive) in experiment [2]; > 10 µM (inactive) in [3]; > 10 µM (inactive) in experiment [4]; > 10 µM (inactive) in experiment [5]; 7.03 µM (inactive) in [6]. Further, the GI50 was > 10 µM (inactive) in experiment [7]; > 10 µM (inactive) in experiment [8]; > 10 µM (inactive) in experiment [9]; > 10 µM (inactive) in [10]; 4.43 µM (inactive) in experiment [11]; > 10 µM (inactive) in [12]. In addition, the GI50 in experiment [13], in experiment [15] and in [14] was > 10 µM (inactive) each time.
With `O=C1OCc2c1cc1cc3c(cc1c2-c1ccc2c(c1)OCO2)OCO3.O=C1OCc2cc3cc4c(cc3c(-c3ccc5c(c3)OCO5)c21)OCO4`, the GI50 in [2] was 19 µM (inactive); in [3] it was 18.7 µM (inactive); in experiment [4], 6.31 µM (inactive); in experiment [5], 7.23 µM (inactive); in experiment [6], 14.5 µM (inactive); in [7] it was 2.31 µM (inactive). Further, the GI50 in [8] was 9.77 µM (inactive); in experiment [9], 28.8 µM (inactive); in experiment [10] it was 8.38 µM (inactive); in [11], 10 µM (inactive); in experiment [12] it was 24.5 µM (inactive); in [13] it was 25.5 µM (inactive). Also, the GI50 was 8.55 µM (inactive) in experiment [15] and 14 µM (inactive) in [14].
`CC(C)(C)OC(=O)NCCC(=O)NC1(c2cc3ccccc3s2)CCCCC1`: the GI50 in [1] was 17.5 µM (inactive); in [2], 16.9 µM (inactive); in [3] it was 23.2 µM (inactive); in experiment [4], 18.4 µM (inactive); in experiment [5], 13.8 µM (inactive); in experiment [6], 28.1 µM (inactive). The GI50 in [7] is 10.9 µM (inactive); in experiment [8], 21.3 µM (inactive); in experiment [9], 15.5 µM (inactive); in experiment [10] it was 18.5 µM (inactive); in [11], 17.4 µM (inactive); in [12], 8.05 µM (inactive). For the same molecule, the values for the GI50 in experiment [13], in experiment [15] and in experiment [14] were 19.1 µM (inactive), 20.6 µM (inactive) and 16.1 µM (inactive), respectively.
In the case of `CC(C)/C(Cl)=N\OC(=O)Nc1ccc(C#N)cc1`, the GI50 is 5.12 µM (inactive) in experiment [1]; 13.7 µM (inactive) in experiment [2]; 16.4 µM (inactive) in experiment [3]; 17.5 µM (inactive) in experiment [4]; 21 µM (inactive) in experiment [5]; 15.1 µM (inactive) in [6]. Moreover, the GI50 in experiment [7] was 1.92 µM (inactive); in [8], 13.1 µM (inactive); in experiment [9], 15.2 µM (inactive); in experiment [10], 16.5 µM (inactive); in [11], 17.7 µM (inactive); in experiment [12], 5.77 µM (inactive). The results for the GI50 in experiment [13], in [15] and in experiment [14] were 12.3 µM (inactive), 17 µM (inactive) and 9.02 µM (inactive), respectively.
Consider `O=C1NC(=S)NC(=O)C1=Cc1ccc(-c2ccccc2)cc1`, for which the GI50 in [1] was > 100 µM (inactive); in experiment [2], > 100 µM (inactive); in [3], > 100 µM (inactive); in experiment [4], > 100 µM (inactive); in [5], > 100 µM (inactive); in [6], 79.4 µM (inactive). In addition, the GI50 in [7] is 24.7 µM (inactive); in experiment [8], > 100 µM (inactive); in experiment [9], > 100 µM (inactive); in experiment [10] it was > 100 µM (inactive); in experiment [12], > 100 µM (inactive); in [13] it was > 100 µM (inactive). The GI50 in [15] and in experiment [14] was > 100 µM (inactive) in each case.
Consider `CC(C)CCCC(C)[C@H]1CC[C@H]2[C@@H]3CC[C@H]4C[C@@H](CCC=C(c5cc(Cl)c(O)c(C(=O)O)c5)c5cc(Cl)c(O)c(C(=O)O)c5)CC[C@]4(C)[C@H]3CC[C@]12C` (some centres not stated), for which the GI50 in experiment [1] was 32.2 µM (inactive); in [2] it was > 50 µM (inactive); in experiment [3], > 50 µM (inactive); in experiment [4] it was > 50 µM (inactive); in [5], > 50 µM (inactive); in [6] it was > 50 µM (inactive). The GI50 in experiment [7], in experiment [8], in experiment [9], in experiment [10], in experiment [11] and in [12] was > 50 µM (inactive) in each case. Further, the values for the GI50 in experiment [15] and in experiment [14] were > 50 µM (inactive) and 6.03 µM (inactive), respectively.
Consider `CC1(C)OCC=CCO1`, for which the GI50 in experiment [2], in experiment [3], in [4], in experiment [5], in experiment [6] and in [7] was > 100 µM (inactive) in each case. Besides, the GI50 in experiment [8], in experiment [9], in experiment [10], in [11], in experiment [12] and in experiment [13] was > 100 µM (inactive) in each case. In addition, the GI50 in [15] and in experiment [14] was > 100 µM (inactive) each time.
